From PubChem BioAssay AID330 (DTP/NCI, 2004) come the findings set out here.

For the assay, the system named is P388 leukemia ip, CD2F1 mice, survival T/C. Description: NCI In Vivo Anticancer Drug Screen. Data for tumor model P388 Leukemia (intraperitoneal) in CD2F1 (CDF1) mice. To be noted: endpoint: median survival time, higher = longer survival. A digest of the protocol: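 Mice carrying the transplanted tumor received test compound or vehicle. Survival was recorded in each group, and the value is the treated-group measurement divided by that of the vehicle-treated control group.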

[1] abbreviates: dose: 50.0 mg/kg/injection, schedule: Q01DX009 (ip), vehicle: saline with Tween-80.
The mark [2] stands for this setting: dose: 100.0 mg/kg/injection, schedule: Q01DX009 (ip), vehicle: saline with Tween-80.
[3] abbreviates: dose: 200.0 mg/kg/injection, schedule: Q01DX009 (ip), vehicle: saline with Tween-80.
Setting [4] is: dose: 7.5 mg/kg/injection, schedule: Q01DX005 (ip), vehicle: saline with Tween-80.
Setting [5] is: dose: 50.0 mg/kg/injection, schedule: Q01DX005 (ip), vehicle: Klucel (hydroxypropylcellulose) (HPC).
[6] abbreviates: dose: 100.0 mg/kg/injection, schedule: Q01DX005 (ip), vehicle: Klucel (hydroxypropylcellulose) (HPC).
Setting [7] is: dose: 200.0 mg/kg/injection, schedule: Q01DX005 (ip), vehicle: Klucel (hydroxypropylcellulose) (HPC).
Setting [8] is: dose: 60.0 mg/kg/injection, schedule: Q01DX005 (ip), vehicle: Klucel (hydroxypropylcellulose) (HPC).
The mark [9] stands for this setting: dose: 6.25 mg/kg/injection, schedule: Q01DX009 (ip), vehicle: Klucel (hydroxypropylcellulose) (HPC).
Setting [10] is: dose: 12.5 mg/kg/injection, schedule: Q01DX009 (ip), vehicle: Klucel (hydroxypropylcellulose) (HPC).

Structures are written as SMILES. Several values for one entry are separate records, joined by “and”; a condition that tells them apart may be missing. Equal values may be shown once. Toxic doses and inconclusive results are not listed.

`COc1cc(C(c2cc3c(cc2O)OCO3)N2CCN(C(c3cc(OC)c(OC)c(OC)c3)c3cc4c(cc3O)OCO4)CC2)cc(OC)c1OC` (stereo unspecified): the T/C (dose: 60.0 mg/kg/injection, schedule: Q01DX005 (ip), vehicle: saline with Tween-80) was 87 % of control; the T/C (dose: 120.0 mg/kg/injection, schedule: Q01DX005 (ip), vehicle: saline with Tween-80) was 90 % of control; the T/C (dose: 240.0 mg/kg/injection, schedule: Q01DX005 (ip), vehicle: saline with Tween-80) is 87 % of control.

For the compound `COc1ccc(/C=C/c2c(C(=O)O)oc3ccccc23)cc1`, the T/C reads like this: under setting [1], 103 % of control; under setting [2], 95 % of control; under setting [3], 112 % of control.

`COc1ccc2c(C)cc(OC)nc2c1`: the T/C under setting [1] is 94 % of control, the T/C under setting [2] is 91 % of control and the T/C under setting [3] is 97 % of control.

Consider `COC(=O)C(NP(=O)(NC(C(=O)OC)c1ccccc1)N(CCCl)CCCl)c1ccccc1` (stereo unspecified), for which the T/C by setting is: under setting [4], 102 % of control; (dose: 15.0 mg/kg/injection, schedule: Q01DX005 (ip), vehicle: saline with Tween-80) 100 % of control; (dose: 30.0 mg/kg/injection, schedule: Q01DX005 (ip), vehicle: saline with Tween-80) 101 % of control.

As for `O=C1C=CC2(CC(O)OC3=C2C(=O)c2oc4cc(O)c(O)cc4c2C3=O)O1` (stereo unspecified), the T/C by setting is: (dose: 10.0 mg/kg/injection, schedule: Q01DX009 (ip), vehicle: Klucel (hydroxypropylcellulose) (HPC)) 102 % of control; (dose: 20.0 mg/kg/injection, schedule: Q01DX009 (ip), vehicle: Klucel (hydroxypropylcellulose) (HPC)) 109 % of control; (dose: 40.0 mg/kg/injection, schedule: Q01DX009 (ip), vehicle: Klucel (hydroxypropylcellulose) (HPC)) 105 % of control; (dose: 80.0 mg/kg/injection, schedule: Q01DX009 (ip), vehicle: Klucel (hydroxypropylcellulose) (HPC)) 111 % of control.

For `CCNC1(N(C)C)N=C(N(C)C)N=C(N(C)C)O1` (stereo unspecified), the T/C is 96 % of control (dose: 50.0 mg/kg/injection, schedule: Q01DX005 (ip), vehicle: saline) and 96 % of control (dose: 100.0 mg/kg/injection, schedule: Q01DX005 (ip), vehicle: saline).

Turning to `c1cc[n+]2cc3cc4c(cc3cc2c1)OCO4`, the T/C runs as follows: (dose: 3.13 mg/kg/injection, schedule: Q01DX009 (ip), vehicle: distilled water + Tween-80) 103 % of control and 107 % of control; (dose: 6.25 mg/kg/injection, schedule: Q01DX009 (ip), vehicle: distilled water + Tween-80) 119 % of control and 123 % of control; (dose: 25.0 mg/kg/injection, schedule: Q01DX009 (ip), vehicle: distilled water + Tween-80) 120 % of control and 94 % of control.

With `CC[C@]1(O)CC(OC2CC(N(C)C)C(O)C(C)O2)c2c(cc3c(c2O)C(=O)c2c(O)cccc2C3=O)[C@@H]1C(=O)OC` (stereo partly specified), the T/C under setting [5] was 95 % of control, the T/C under setting [6] was 96 % of control and the T/C under setting [7] was 97 % of control.

Turning to `COC(=O)c1ccc(C(=O)OC)c2nc3cc(C)c(C)cc3nc12`, the T/C runs as follows: under setting [8], 96 % of control; (dose: 120.0 mg/kg/injection, schedule: Q01DX005 (ip), vehicle: Klucel (hydroxypropylcellulose) (HPC)) 98 % of control.

In the case of `C1CCC2(CC1)NCCO2`, the T/C is, setting by setting: (dose: 25.0 mg/kg/injection, schedule: Q01DX005 (ip), vehicle: suspension in saline) 98 % of control; (dose: 50.0 mg/kg/injection, schedule: Q01DX005 (ip), vehicle: suspension in saline) 93 % of control; (dose: 100.0 mg/kg/injection, schedule: Q01DX005 (ip), vehicle: suspension in saline) 94 % of control; (dose: 200.0 mg/kg/injection, schedule: Q01DX005 (ip), vehicle: suspension in saline) 109 % of control; (dose: 400.0 mg/kg/injection, schedule: Q01DX005 (ip), vehicle: suspension in saline) 98 % of control.

As to `Cc1c(-c2ccccc2)nc2sccn12`, the T/C (dose: 25.0 mg/kg/injection, schedule: Q01DX009 (ip), vehicle: saline) is 102 % of control; the T/C (dose: 50.0 mg/kg/injection, schedule: Q01DX009 (ip), vehicle: saline) is 102 % of control; the T/C (dose: 100.0 mg/kg/injection, schedule: Q01DX009 (ip), vehicle: saline) is 96 % of control.

`COc1cc(C2CC(C)(N3CCCC3)Oc3cc4c(cc32)OCO4)cc(OC)c1OC` (stereo unspecified): the T/C under setting [8] is 106 % of control and 109 % of control.

For `Cc1nc(N=C(N)N)nc2ccc3ccccc3c12`, the T/C is, setting by setting: (dose: 3.13 mg/kg/injection, schedule: Q01DX009 (ip), vehicle: Klucel (hydroxypropylcellulose) (HPC)) 95 % of control; under setting [9], 104 % of control; under setting [10], 93 % of control.

In the case of `O=C(/C=C/c1cccnc1)/C=C/c1cccnc1`, the T/C under setting [9] is 122 % of control; the T/C under setting [10] is 124 % of control; the T/C (dose: 25.0 mg/kg/injection, schedule: Q01DX009 (ip), vehicle: Klucel (hydroxypropylcellulose) (HPC)) was 124 % of control; the T/C (dose: 50.0 mg/kg/injection, schedule: Q01DX009 (ip), vehicle: Klucel (hydroxypropylcellulose) (HPC)) is 120 % of control.

`C=C1CCN(c2ccc(N3CCC(=C)C3=O)cc2)C1=O`: the T/C runs as follows: (dose: 3.12 mg/kg/injection, schedule: Q01DX009 (ip), vehicle: saline + alcohol) 88 % of control; (dose: 6.25 mg/kg/injection, schedule: Q01DX009 (ip), vehicle: saline + alcohol) 100 % of control; (dose: 25.0 mg/kg/injection, schedule: Q01DX009 (ip), vehicle: saline + alcohol) 88 % of control; (dose: 50.0 mg/kg/injection, schedule: Q01DX009 (ip), vehicle: saline + alcohol) 88 % of control.

Turning to `Cn1c2cc(F)ccc2c(=O)c2c(O)cc3c(c21)C=CC(C)(C)O3`, the T/C under setting [5] was 94 % of control, the T/C under setting [6] is 92 % of control and the T/C under setting [7] is 94 % of control.

Consider `C=C1C(=O)O[C@H]2C=C(C)[C@H]3[C@@H](OC(C)=O)C[C@@](C)(O)[C@@H]3C[C@H]12`, for which the T/C (dose: 12.5 mg/kg/injection, schedule: Q01DX009 (ip), vehicle: suspension in saline) was 106 % of control; the T/C (dose: 25.0 mg/kg/injection, schedule: Q01DX009 (ip), vehicle: suspension in saline) was 106 % of control; the T/C (dose: 50.0 mg/kg/injection, schedule: Q01DX009 (ip), vehicle: suspension in saline) is 103 % of control; the T/C (dose: 100.0 mg/kg/injection, schedule: Q01DX009 (ip), vehicle: suspension in saline) is 114 % of control.

On to `Cc1nc(O)c(-c2ccccc2)s1`, for which the T/C was 104 % of control under setting [1], 105 % of control under setting [2] and 92 % of control under setting [3].

With `CC1=[N+]([O-])[N+]([O-])=C(C)C1=O`, the T/C runs as follows: under setting [9], 91 % of control; under setting [10], 100 % of control.

On to `CCC(=O)[O][Bi]([c]1ccccc1)[c]1ccccc1`, for which the T/C reads like this: (dose: 25.0 mg/kg/injection, schedule: Q01DX005 (ip), vehicle: Klucel (hydroxypropylcellulose) (HPC)) 99 % of control and 116 % of control; under setting [5], 111 % of control and 114 % of control and 115 % of control; under setting [6], 106 % of control and 124 % of control; under setting [7], 168 % of control.

Turning to `CC1CC[N-]C(CCC2CC(C)CC[N-]2)C1.CC1CC[N-]C(CCC2CC(C)CC[N-]2)C1.[Ni+2].[O-][Cl+3]([O-])([O-])O` (stereo unspecified), the T/C is 99 % of control (dose: 25.0 mg/kg/injection, schedule: Q01DX001 (ip), vehicle: saline); 93 % of control (dose: 50.0 mg/kg/injection, schedule: Q01DX001 (ip), vehicle: saline); 108 % of control and 96 % of control (dose: 100.0 mg/kg/injection, schedule: Q01DX001 (ip), vehicle: saline).

In the case of `CCCCCCCCCc1cccc(N2C(N)=NC(N)=NC2(C)C)c1`, the T/C under setting [4] is 106 % of control.

On to `Nc1nnc2nc(CC(=O)c3ccc(F)cc3)c(CC(=O)c3ccc(F)cc3)nn12`, for which the T/C (dose: 60.0 mg/kg/injection, schedule: Q01DX005 (ip), vehicle: saline) is 104 % of control; the T/C (dose: 120.0 mg/kg/injection, schedule: Q01DX005 (ip), vehicle: saline) was 106 % of control; the T/C (dose: 240.0 mg/kg/injection, schedule: Q01DX005 (ip), vehicle: saline) was 100 % of control.

Take `NC(C[P+](=O)O)C(=O)O` (stereo unspecified): the T/C reads like this: (dose: 18.75 mg/kg/injection, schedule: Q01DX005 (ip), vehicle: water) 103 % of control; (dose: 37.5 mg/kg/injection, schedule: Q01DX005 (ip), vehicle: water) 111 % of control; (dose: 75.0 mg/kg/injection, schedule: Q01DX005 (ip), vehicle: water) 91 % of control; (dose: 150.0 mg/kg/injection, schedule: Q01DX005 (ip), vehicle: water) 87 % of control.

Consider `CN(/C=C1\CCCCC1=O)c1ccccc1`, for which the T/C by setting is: under setting [1], 98 % of control; under setting [2], 102 % of control; under setting [3], 113 % of control.
